The source of these data is patent publication US20220073536A1 (Rigel Pharmaceuticals, Inc., priority 2003, published 2022).

Read-outs that look alike come from different tables or passages of the source.

For the assay, the system named is cultured human mast cells (CHMC). Put plainly: CHMC low cell density IgE activation: tryptase assay. The settings on record: low cell density CHMC, IgE activation, tryptase. Format: cell-based. In outline: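 CHMC were seeded at 1000–1500 cells/well in MT buffer and incubated 1 hr at 37 °C. They were then stimulated with anti-IgE for 30 min at 37 °C, with unstimulated wells as controls. Released tryptase in the supernatant was measured with a fluorogenic substrate after 30 min at room temperature.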

The mark [1] stands for this setting: Homo sapiens, Mast cell, 8 pt, read-out: LD Tryptase, CHMC, IgE, 8 pt.
Setting [2] is: Homo sapiens, Mast cell, 3 pt, read-out: LD Tryptase, CHMC, IgE, 3 pt.

Regarding `CC1(C)Oc2ccc(Nc3nc(Nc4ccc5c(cnn5CC5CCC5)c4)ncc3F)cc2NC1=O` [Compound 728, N2-[1-(Cyclobutylmethyl)indazol-5-yl]-N4-(2,2-dimethyl-3-oxo-4H-benz[1,4]oxazin-6-yl)-5-fluoro-2,4-pyrimidinediamine], the IC50 under setting [1] is < 10 µM. Turning to `COc1cc(Nc2nc(Nc3ccc4c(cnn4CC4CCC4)c3)ncc2F)ccc1F` [Compound 729, N2-[1-(Cyclobuylmethyl)indazol-5-yl)-5-fluoro-N4-(4-fluoro-3-methoxyphenyl)-2,4-pyrimidinediamine], the IC50 (8 pt, read-out: LD Tryptase, CHMC, IgE, 8 pt) is < 10 µM. For the compound `COc1ccc(Nc2nc(Nc3ccc4cnn(CC5CCC5)c4c3)ncc2F)cc1Cl` [Compound 730, N4-(3-Chloro-4-methoxyphenyl)-N2-[1-(cyclobutylmethyl)indazol-6-yl]-5-fluoro-2,4-pyrimidinediamine], under setting [2], the IC50 was < 10 µM. Consider `Fc1cnc(Nc2ccc3cnn(CC4CCC4)c3c2)nc1Nc1ccc(Cl)c(Cl)c1` [Compound 731, N2-[1-(Cyclobutylmethyl)indazol-6-yl]-N4-(3,4-dichlorophenyl)-5-fluoro-2,4-pyrimidinediamine], for which the IC50 under setting [2] was < 10 µM.

For `CC1(C)Oc2ccc(Nc3nc(Nc4ccc5cnn(CC6CCC6)c5c4)ncc3F)cc2NC1=O` [Compound 732, N2-[1-(Cyclobutylmethyl)indazol-6-yl]-N4-(2,2-dimethyl-3-oxo-4H-benz[1,4]oxazin-6-yl)-5-fluoro-2,4-pyrimidinediamine], the IC50 under setting [1] was < 10 µM. As for `COc1cc(Nc2nc(Nc3ccc4cnn(CC5CCC5)c4c3)ncc2F)ccc1F` [Compound 733, N2-[1-(Cyclobuylmethyl)indazol-6-yl)-5-fluoro-N4-(4-fluoro-3-methoxyphenyl)-2,4-pyrimidinediamine], the IC50 (3 pt, read-out: LD Tryptase, CHMC, IgE, 3 pt) is < 10 µM.

Consider `COc1ccc(Nc2nc(Nc3ccc4c(cnn4CC4CC4)c3)ncc2F)cc1Cl` [Compound 734, N4-(3-Chloro-4-methoxyphenyl)-N2-[1-(cyclopropylmethyl)indazol-5-yl]-5-fluoro-2,4-pyrimidinediamine], for which the IC50 under setting [1] is < 10 µM. As for `Fc1cnc(Nc2ccc3c(cnn3CC3CC3)c2)nc1Nc1ccc(Cl)c(Cl)c1` [Compound 735, N2-[1-(Cyclopropylmethyl)indazol-5-yl]-N4-(3,4-dichlorophenyl)-5-fluoro-2,4-pyrimidinediamine], the IC50 under setting [2] was < 10 µM.

Consider `CC1(C)Oc2ccc(Nc3nc(Nc4ccc5c(cnn5CC5CC5)c4)ncc3F)cc2NC1=O` [Compound 736, N2-[1-(Cyclopropylmethyl)indazol-5-yl]-N4-(2,2-dimethyl-3-oxo-4H-benz[1,4]oxazin-6-yl)-5-fluoro-2,4-pyrimidinediamine], for which the IC50 under setting [1] is < 10 µM. Same read-out and setting: under `COc1cc(Nc2nc(Nc3ccc4c(cnn4CC4CC4)c3)ncc2F)ccc1F` [Compound 737, N2-[1-(Cyclopropylmethyl)indazol-5-yl)-5-fluoro-N4-(4-fluoro-3-methoxyphenyl)-2,4-pyrimidinediamine] stands < 10 µM. Regarding `COc1ccc(Nc2nc(Nc3ccc4cnn(CC5CC5)c4c3)ncc2F)cc1Cl` [Compound 738, N4-(3-Chloro-4-methoxyphenyl)-N2-[1-(cyclopropylmethyl)indazol-6-yl]-5-fluoro-2,4-pyrimidinediamine], the IC50 under setting [1] was < 10 µM. Turning to `Fc1cnc(Nc2ccc3cnn(CC4CC4)c3c2)nc1Nc1ccc(Cl)c(Cl)c1` [Compound 739, N2-[1-(Cyclopropylmethyl)indazol-6-yl]-N4-(3,4-dichlorophenyl)-5-fluoro-2,4-pyrimidinediamine], the IC50 under setting [2] is < 10 µM. `CC1(C)Oc2ccc(Nc3nc(Nc4ccc5cnn(CC6CC6)c5c4)ncc3F)cc2NC1=O` [Compound 740, N2-[1-(Cyclopropylmethyl)indazol-6-yl]-N4-(2,2-dimethyl-3-oxo-4H-benz[1,4]oxazin-6-yl)-5-fluoro-2,4-pyrimidinediamine]: the IC50 under setting [1] was < 10 µM. The same measure, in the same setting: under `COc1cc(Nc2nc(Nc3ccc4cnn(CC5CC5)c4c3)ncc2F)ccc1F` [Compound 741, N2-[1-(Cyclopropylmethyl)indazol-6-yl)-5-fluoro-N4-(4-fluoro-3-methoxyphenyl)-2,4-pyrimidinediamine] stands < 10 µM. Turning to `COc1ccc(Nc2nc(Nc3ccc4c(cnn4C4CCCCC4)c3)ncc2F)cc1Cl` [Compound 742, N4-(3-Chloro-4-methoxyphenyl)-N2-(1-cyclohexylindazol-5-yl)-5-fluoro-2,4-pyrimidinediamine], the IC50 is < 10 µM under setting [2] and < 10 µM under setting [1]. In the case of `Fc1cnc(Nc2ccc3c(cnn3C3CCCCC3)c2)nc1Nc1ccc(Cl)c(Cl)c1` [Compound 743, N2-(1-Cyclohexylindazol-5-yl)-N4-(3,4-dichlorophenyl)-5-fluoro-2,4-pyrimidinediamine], the IC50 under setting [2] is < 10 µM.

With `CC1(C)Oc2ccc(Nc3nc(Nc4ccc5c(cnn5C5CCCCC5)c4)ncc3F)cc2NC1=O` [Compound 744, N2-(1-Cyclohexylindazol-5-yl)-N4-(2,2-dimethyl-3-oxo-4H-benz[1,4]oxazin-6-yl)-5-fluoro-2,4-pyrimidinediamine], the IC50 under setting [1] is < 10 µM. As for `COc1cc(Nc2nc(Nc3ccc4c(cnn4C4CCCCC4)c3)ncc2F)ccc1F` [Compound 745, N2-(1-Cyclohexylindazol-5-yl)-5-fluoro-N4-(4-fluoro-3-methoxyphenyl)-2,4-pyrimidinediamine], the IC50 under setting [2] is < 10 µM. The same measure, in the same setting: under `COc1ccc(Nc2nc(Nc3ccc4cnn(C5CCCCC5)c4c3)ncc2F)cc1Cl` [Compound 746, N4-(3-Chloro-4-methoxyphenyl)-N2-(1-cyclohexylindazol-6-yl)-5-fluoro-2,4-pyrimidinediamine] stands < 10 µM. As for `Fc1cnc(Nc2ccc3cnn(C4CCCCC4)c3c2)nc1Nc1ccc(Cl)c(Cl)c1` [Compound 747, N2-(1-Cyclohexylindazol-6-yl)-N4-(3,4-dichlorophenyl)-5-fluoro-2,4-pyrimidinediamine], the IC50 under setting [2] was < 10 µM. In the case of `CC1(C)Oc2ccc(Nc3nc(Nc4ccc5cnn(C6CCCCC6)c5c4)ncc3F)cc2NC1=O` [Compound 748, N2-(1-Cyclohexylindazol-6-yl)-N4-(2,2-dimethyl-3-oxo-4H-benz[1,4]oxazin-6-yl)-5-fluoro-2,4-pyrimidinediamine], the IC50 under setting [1] was < 10 µM.

As to `COc1cc(Nc2nc(Nc3ccc4cnn(C5CCCCC5)c4c3)ncc2F)ccc1F` [Compound 749, N2-(1-Cyclohexylindazol-6-yl)-5-fluoro-N4-(4-fluoro-3-methoxyphenyl)-2,4-pyrimidinediamine], the IC50 under setting [2] was < 10 µM. For the compound `Cc1n[nH]c2cc(Nc3ncc(F)c(Nc4ccc(Cl)c(Cl)c4)n3)ccc12` [Compound 750, N4-(3,4-Dichlorophenyl)-5-fluoro-N2-(3-methylindazol-6-yl)-2,4-pyrimidinediamine], the IC50 was < 10 µM under setting [2] and < 10 µM under setting [1]. On to `Cc1n[nH]c2cc(Nc3ncc(F)c(Nc4ccc5c(c4)NC(=O)C(C)(C)O5)n3)ccc12` [Compound 751, N4-(2,2-Dimethyl-3-oxo-4H-benz[1,4]oxazin-6-yl)-5-fluoro-N2-(3-methylindazol-6-yl)-2,4-pyrimidinediamine], for which the IC50 runs as follows: under setting [2], < 10 µM; under setting [1], < 10 µM. Turning to `COc1ccc(Nc2nc(Nc3ccc4c(C)nn(C)c4c3)ncc2F)cc1Cl` [Compound 752, N4-(3-Chloro-4-methoxyphenyl)-N2-(1,3-dimethylindazol-6-yl)-5-fluoro-2,4-pyrimidinediamine], the IC50 is, setting by setting: under setting [2], < 10 µM; under setting [1], < 10 µM. Take `Cc1nn(C)c2cc(Nc3ncc(F)c(Nc4ccc(Cl)c(Cl)c4)n3)ccc12` [Compound 753, N4-(3,4-Dichlorophenyl)-N2-(1,3-dimethylindazol-6-yl)-5-fluoro-2,4-pyrimidinediamine]: the IC50 was < 10 µM under setting [2] and < 10 µM under setting [1].

`Cc1nn(C)c2cc(Nc3ncc(F)c(Nc4ccc5c(c4)NC(=O)C(C)(C)O5)n3)ccc12` [Compound 754, N2-(1,3-Dimethylindazol-6-yl)-N4-(2,2-dimethyl-3-oxo-4H-benz[1,4]oxazin-6-yl)-5-fluoro-2,4-pyrimidinediamine]: the IC50 reads like this: under setting [2], < 10 µM; under setting [1], < 10 µM. For `COc1cc(Nc2nc(Nc3ccc4c(C)nn(C)c4c3)ncc2F)ccc1F` [Compound 755, N2-(1,3-Dimethylindazol-6-yl)-5-fluoro-N4-(4-fluoro-3-methoxyphenyl)-2,4-pyrimidinediamine], the IC50 is, setting by setting: under setting [2], < 10 µM; under setting [1], < 10 µM.

Consider `COc1ccc(Nc2nc(Nc3cc4cnn(C)c4cc3C)ncc2F)cc1Cl` [Compound 756, N4-(3-Chloro-4-methoxyphenyl)-N2-(1,6-dimethylindazol-5-yl)-5-fluoro-2,4-pyrimidinediamine], for which the IC50 under setting [2] was < 10 µM. Take `Cc1cc2c(cnn2C)cc1Nc1ncc(F)c(Nc2ccc(Cl)c(Cl)c2)n1` [Compound 757, N4-(3,4-Dichlorophenyl)-N2-(1,6-dimethylindazol-5-yl)-5-fluoro-2,4-pyrimidinediamine]: the IC50 under setting [2] was < 10 µM.

Take `Cc1cc2c(cnn2C)cc1Nc1ncc(F)c(Nc2ccc3c(c2)NC(=O)C(C)(C)O3)n1` [Compound 758, N2-(1,6-Dimethylindazol-5-yl)-N4-(2,2-dimethyl-3-oxo-4H-benz[1,4]oxazin-6-yl)-5-fluoro-2,4-pyrimidinediamine]: the IC50 is, setting by setting: under setting [2], < 10 µM; under setting [1], < 10 µM. Consider `COc1cc(Nc2nc(Nc3cc4cnn(C)c4cc3C)ncc2F)ccc1F` [Compound 759, N2-(1,6-Dimethylindazol-5-yl)-5-fluoro-N4-(4-fluoro-3-methoxyphenyl)-2,4-pyrimidinediamine], for which the IC50 under setting [2] was < 10 µM. As to `CCn1cc2ccc(Nc3ncc(F)c(Nc4ccc(Cl)c(Cl)c4)n3)cc2n1` [Compound 760, N4-(3,4-Dichlorophenyl)-N2-(2-ethylindazol-6-yl)-5-fluoro-2,4-pyrimidinediamine], the IC50 under setting [2] was < 10 µM and the IC50 under setting [1] is < 10 µM.
